Measurements: patent publication US20220163532A1, “NUCLEAR-DERIVED EXOSOMES AND METHODS OF USE THEREOF” (Board of Regents, The University of Texas System, priority 2019, published 2022)

Experiments:
[1] = test system: ovarian cancer cells; experiment: Nuclear proteins in exosomes from drug-treated ovarian cancer cells (Western blot); type: cell-based, human; conditions: topotecan 10 nM or olaparib 20 μM
Experimental: Isolation of exosomes. The isolation method for exosomes that was used in this study followed the standard methods of the International Society of Extracellular Vesicles (Witwer et al., 2013). Cell lines described above were grown in the corresponding medium described above until 60 to 70% confluence was achieved. Cells were then washed twice with phosphate-buffered saline (PBS) and grown in corresponding medium containing 1% exosome-free FBS (EXO-FBS-250A-1, System Biosciences) plus 0.1% gentamicin for 48 hours. For exosome isolation, the harvested medium underwent serial centrifugation. First, the medium was spun down at 500g for 10 min to pellet any floating cells. Next, the supernatant was collected and spun down at 2000g for 30 min to pellet any residual cell debris. The resulting supernatant was then filtered through a 0.22-μm filter (SCGPUO5RE and SLGP033RS, Millipore-Sigma) to remove any remaining large vesicles. After filtration, the medium was spun down at 40,000 rpm for 2 hours at 4° C. in an ultracentrifuge (Optima XE, Beckman Coulter) with a Ti 45 fixed-angle rotor (339160, Beckman Coulter). […] Exosome concentration and quantity were determined using NTA with a NanoSight NS300 instrument (Malvern Panalytical).
Western blotting. […] Protein concentration was determined using the Micro BCA Protein Assay Kit (23235, Thermo Fisher Scientific) according to the manufacturer's protocol. […]

[2] = test system: OVCAR-5 and OVCAR-8 cells; experiment: MN quantification in ovarian cancer cells treated with genotoxic drugs (IF, Lamin A/C); type: cell-based, human; conditions: topotecan 10 nM or olaparib 20 μM, vs DMSO
Experimental: IF experiments and MN quantification. Cells were plated at a density of 5×10^4 cells on sterile, 0.17-mm-thick coverslips (12-548-A, Thermo Fisher Scientific) placed at the bottom of six-well plates. The next day, cells were treated for 24 hours with either vehicle control dimethyl sulfoxide (DMSO; 1:1000 dilution; D2650, Sigma-Aldrich), 20 μM olaparib (O-9201, LC Laboratories), or 10 nM topotecan (T2705-50MG, Sigma-Aldrich). After 24 hours, the cells were washed with PBS and refed with the appropriate cell culture medium to grow for another 48 hours, for a total time of 72 hours after initial plating on the coverslips.
The drug-treated cells were first washed three times with PBS, fixed with 4% paraformaldehyde (PFA; 50-980-487, Thermo Fisher Scientific) diluted in PBS, and incubated at RT for 15 min with light rocking. […] Last, cells on coverslips were then washed four times with PBS and mounted on slides using ProLong Diamond Antifade Mountant (P36961, Thermo Fisher Scientific) and imaged with a Leica fluorescence microscope (Leica DM4000 M LED; Leica Microsystems) or an Andor Revolution XDi WD Spinning Disk Confocal microscope. For MN quantification, the number of MN in each 40× field was counted using 10 fields per sample. […]

With CC[C@@]1(O)C(=O)OCc2c1cc1n(c2=O)Cc2cc3c(CN(C)C)c(O)ccc3nc2-1 [topotecan] the “population of exosomes containing nuclear proteins” value [1] was “increased” and the “number of MN” value [2] was “increased significantly”.
